Results published in paper PMC12040169 (PLOS Biology, 2025).

Assay: in vitro
Conditions: human, hela cells, % viability

Structure (SMILES) | viability at 28.5 h, 10 µM [%] | viability at 28.5 h, 10 µM (bulk resorufin, single well) [%]
CCN1C(=O)c2ccccc2C(=O)[C@@]2(C)CN(C(C)=O)C[C@@H]12 [CBK281686] | 89.7 | –
NC(=O)CSc1nnc(NC(=O)c2ccc(Cl)cc2Cl)s1 [CBK287627] | 86.4 | –
COc1ccccc1-c1nccnc1N(C)Cc1ccccc1 [CBK036774] | 102 | –
O=C(Oc1ccc(N(C(=O)c2ccncc2)S(=O)(=O)c2cccs2)cc1)c1ccncc1 [CBK265619] | 98.7 | –
Cc1ncccc1COC(=O)Nc1cccnc1 [CBK138237] | 94.3 | –
O=C1N(CN2CCN(C(c3ccccc3)c3ccccc3)CC2)c2ccccc2C12OCCCO2 [CBK265538] | 85.6 | –
CCN1CCN(Cc2nc3c(c(=O)n(C)c(=O)n3C)n2Cc2c(F)cccc2Cl)CC1 [CBK269236] | 108 | –
Cc1ccccc1Cc1cccc(C2CCN(CC(=O)Nc3nccs3)CC2)n1 [CBK286089] | 97.6 | –
Cc1c(C(=O)O)ccc2c1N[C@@H](c1ccc(OCC#N)cc1)C1CC=CC21 (stereo partly shown) [CBK287124] | 89.2 | –
CC1(C)Cc2c(sc(NC(=O)C3CC(Cl)=CCC3C(=O)O)c2C#N)CO1 (stereo not shown) [CBK265002] | 97.6 | –
O=c1n(CCCNCc2ccc(Cl)cc2Cl)nc2n1CCCC2 [CBK305382] | 97.2 | –
CCCCOc1ccc(OC(=O)COCCOCCN2C(=O)c3ccccc3C2=O)cc1 [CBK155584] | 92.6 | –
CN1CCCC(C(=O)Nc2cnc(-c3cccc(C(F)(F)F)c3)c(-c3cccnc3)n2)C1 (stereo not shown) [CBK036787] | 87.2 | –
O=C1NC2=C(C(=O)N(CC3CCCO3)C2)C(c2cccc(F)c2)N1 (stereo not shown) [CBK282364] | 86.1 | –
CCCCNC(=O)c1ccc2nc(CC)c(N(C)C(=O)C3CCCCC3)n2c1 [CBK145791] | 88.9 | –
CC(C)(C)c1ccc(C(O)CN2CCC(O)(c3ccc4c(c3)OCO4)CC2)cc1 (stereo not shown) [CBK286336] | 89.3 | –
CCCCN(CCCC)S(=O)(=O)c1nc2nc(C)cc(C)n2n1 [CBK022076] | 79.7 | –
O=C(c1ccccc1-n1cccc1)N1CCCC1 [CBK149608] | 81.6 | –
COCCOc1nc2ccccc2nc1C [CBK058489] | 103 | –
COc1ccc(CCNC(=O)N2CCC(C(=O)O)CC2)cc1OC [CBK161404] | 110 | –
CCCNC(=O)Cn1cnc2sc(C(=O)Nc3ccccc3OC)c(C)c2c1=O [CBK071910] | 90.3 | –
CSCCN1CCC(Oc2nccnc2OCCN2CCOCC2)CC1 [CBK082935] | 92.9 | –

Structure (SMILES) | viability at 28.5 h, 10 µM [%] | viability at 28.5 h, 10 µM (bulk resorufin, single well) [%]
CCNC(=O)Nc1ccc(-c2ccc(SC)cc2)c2ccccc12 [CBK083723] | 90.4 | –
O=S(=O)(Nc1ccc(C(O)(C(F)(F)F)C(F)(F)F)cc1)c1cccc2nsnc12 [CBK062096] | 108 | –
CCCCc1ccc(NC(=S)NN2CCN(C)CC2)cc1 [CBK265741] | 97.1 | –
COc1cc(-c2cc(-c3ccccc3)nc(SCC(=O)O)c2C#N)cc(OC)c1OC [CBK131867] | 99.3 | –
COc1cc2c(cc1OC)C1c3ccccc3N(Cc3ccccc3)C(=O)N1CC2 (stereo not shown) [CBK286192] | 86.8 | –
CCC(C)(C)c1ccc(S(=O)(=O)N2CCN(Cc3cccc4cccnc34)CC2)cc1 [CBK062830] | 98.1 | –
O=C(c1ccc2nccnc2c1)N1CCCc2ccccc21 [CBK200257] | 95.3 | –
S=C(Nc1ccc2nc3c4ccccc4c4ccccc4c3nc2c1)N1CCOCC1 [CBK263153] | – | 94.7
COc1ccccc1Oc1ccc(C(F)(F)F)cc1[N+](=O)[O-] [CBK002845] | 99 | –
COc1cccc2c1OC1(CCN(C(=O)c3ccno3)CC1)OC2 [CBK061071] | – | 97
CCCSc1ccc2[nH]c(NC(=O)CSc3nc[nH]n3)nc2c1 [CBK270181] | 51.8 | –
CCC1=NNC(=O)C(CC(=O)Nc2ccccc2)c2cc(OC)c(OC)cc21 (stereo not shown) [CBK009158] | 92.4 | –
COc1cccc(CCN2CCC(C(=O)NC(C)c3cccc4ccccc34)CC2)c1 (stereo not shown) [CBK148650] | 93.3 | –
COc1ccc(F)c(C2NC(=O)CCC2N)c1 (stereo not shown) [CBK282905] | 97.6 | –
Cc1cc(NC(=O)CS(=O)(=O)c2cccc(C(F)(F)F)c2)on1 [CBK306015] | 85.5 | –
Cc1noc2c1[C@H]1[C@H](O)[C@H](O)C[C@H]1C1(CCC1)N2 [CBK303266] | 111 | –
COc1ccc2c(c1)nc1n2CCC1OC(C)=O (stereo not shown) [CBK115379] | 100 | –
O=C(NCCNc1cnccn1)c1cc(F)cc(Br)c1 [CBK304554] | 99.6 | –
Cc1ccc(NC(=O)c2ccccc2)s1 [CBK086724] | 95.2 | –
COc1ccc(-c2nc3ccccc3s2)cc1O [CBK026156] | 91.6 | –
COC1C(O)C(CO)OC1n1ccc(NC(=O)c2ccccc2)nc1=O (stereo not shown) [CBK201212] | 94.8 | –
COC(=O)CN1CCCC[C@H]2CN(C(=O)Cc3ccsc3)C[C@H]21 [CBK285509] | 111 | –

Structure (SMILES) | viability at 28.5 h, 10 µM [%] | viability at 28.5 h, 10 µM (bulk resorufin, single well) [%]
COc1ccccc1-c1ccnc(N[C@H]2CO[C@H]3[C@@H]2OC[C@@H]3NC(=O)C2CCCCC2)n1 [CBK289529] | 94.8 | –
Cc1ccccc1OCCCNCCN1CCOCC1 [CBK268590C] | 106 | –
Cc1nc2cc(-c3nccn3C)nn2c(N2CCN(c3ccc4c(c3)OCCO4)CC2)c1C [CBK286186] | 90.4 | –
CC1CCc2sc3ncnc(N4CCN(CCOC(c5ccccc5)c5ccccc5)CC4)c3c2C1 (stereo not shown) [CBK264884] | 86.6 | –
COc1ccc(-c2cncc(C3CN(Cc4ccc(C)cc4OC)CCO3)n2)cc1 (stereo not shown) [CBK286100] | 91.8 | –
O=C(c1cncnc1)N1CCC(Cc2ccccc2)CC1 [CBK200212] | 92.8 | –
COC(=O)COc1ccc(C(NC(=O)c2ccccc2)C(Cl)(Cl)Cl)cc1 (stereo not shown) [CBK265437] | 97.8 | –
Cc1sc2nc(C(C)Nc3ccc4[nH]c(=O)[nH]c4c3)[nH]c(=O)c2c1C (stereo not shown) [CBK297915] | 80.6 | –
O=C(O)c1c[nH]cn1 [CBK260978G] | 97 | –
COc1ccccc1CNCCNC(=O)OC(C)(C)C [CBK056694] | 105 | –
Cc1cnoc1-c1cc(Br)cc(Br)c1O [CBK012420] | 104 | –
COc1cc2nnnn2c(-c2ccccc2)n1 [CBK026189] | 102 | –
COc1cc(Nc2nc(-c3cccc(NC(C)=O)c3)cn3ccnc23)cc(OC)c1OC [CBK038093] | 99.7 | –
CCn1c(CN2CCCC2c2nc(N(C)C)ncc2-c2cccc(F)c2)nc2ccccc21 (stereo not shown) [CBK286500] | 102 | –
Cn1cc(C(=O)N2CCc3ncc(Cl)cc3C2)ccc1=O [CBK285130] | 100 | –
Cc1ccc(S(=O)(=O)N(CC(=O)Nc2cccnc2)c2ccc(C)c(C)c2)cc1 [CBK263974] | 75.4 | –
O=c1oc(-c2ccco2)nn1Cc1ccc([N+](=O)[O-])cc1 [CBK295593] | 94.8 | –
CC1(C)[C@H](Cc2cc(CC3CCCCC3)on2)C[C@@H]1NC(=O)C1CCCC1 [CBK289256] | 84.7 | –
COc1cc(/C=N/N=C(/Nc2ccc(C)cc2)c2nc3ccccc3s2)ccc1O [CBK265029] | 103 | –
CC(=O)N1CC[C@H]2NC(=O)CNC(=O)C3(CCCC[C@H]2C1)CCN(Cc1ccc(Cl)cc1)CC3 [CBK292119] | 90.5 | –
